Experimental data published in patent publication US4454123A, “O-xylopyranoside series compounds and methods of use” (Seikagaku Kogyo Co. Ltd., priority 1980, dated 1984).
Where two headings read alike, the source gives them in different places.

What was measured:
[1] = system: platelet agglutination caused by ADP; assay: Inhibitory effect against platelet agglutinating agent ADP (Test Example 8); assay type: cell-based, human; set-up: key: The degree of agglutination was expressed by using marks +, ++, +++, etc.; The degree of agglutination was expressed by using marks +, ++, +++, etc.; The degree of agglutination was expressed by using marks +, ++, +++, etc; settings: specimen 2 mM, dissolved in 50% ethanol
Description: (§1) Inhibitory activities of each compound of this invention against platelet agglutinating agents (ADP, collagen, thrombin, ristocetin and epinephrine)were investigated according to the method using a microscope.
(§2) PRP was prepared by mixing a 3.8% aqueous sodium citrate and a human vein blood at a ratio of 1:9; centrifuging the mixture at 700 r.p.m. for 10 minutes; and then collecting the supernatant.
(§3) The residue remaining after collection of the PRP mentioned above was subjected further to centrifugation at 3000 r.p.m. for 10 minutes and then collected the supernatant to obtain PPP.
(§4) Following solutions were employed for the test.
a. ADP (2 μM/ml solution)
(§5) In each well of a Multidish (Nunc Multidish having 24 wells) was placed 0.2 ml of PRP (containing 3.0×10^5 platelet cells/cmm).
(§6) Thereto was added 50 μl of a specimen solution containing 10 mM of the compound according to this invention, and the mixture was stirred at 37° C. for 2 minutes. To the mixture was added 10 μl of each solution of the platelet agglutinating agent mentioned above, and the result was observed by using a microscope 1 minute and then 5 minutes thereafter.
(§7) The degree of agglutination was expressed by using marks +, ++, +++, etc., according to the method by Fukutake et al [Katsuhiro Fukutake, Iwao Yamaguchi: Blood and Blood Vessel, Volume 6, No. 7, pp. 55-60 (1975)].

[2] = Acute toxicity (LD50) by oral or intraperitoneal administration to ddY mice (Test Example 6); assay type: in vivo; settings: mouse, in vivo, 7 days
Description: (§8) The acute toxicity of the compound according to this invention was determined by forced oral or intraperitoneal administration thereof to ddY mice.
(§9) To prepare each specimen to be administered, a predetermined amount of each compound shown in Table 5 was dissolved in a physiological saline or suspended in a 0.2% solution of carboxymethylcellulose in a physiological saline. Each specimen was administered orally to a ddY mouse via its stomach tube or injected intraperitoneally.

[3] = system: platelet agglutination caused by collagen; assay: Inhibitory effect against platelet agglutinating agent collagen (Test Example 8); assay type: cell-based, human; set-up: key: The degree of agglutination was expressed by using marks +, ++, +++, etc.; The degree of agglutination was expressed by using marks +, ++, +++, etc.; The degree of agglutination was expressed by using marks +, ++, +++, etc; settings: specimen 2 mM, dissolved in 50% ethanol
Description: as §1, §2, §3, §4
b. collagen (0.25 μM/ml solution)
as §5, §6, §7

[4] = system: platelet agglutination caused by thrombin; assay: Inhibitory effect against platelet agglutinating agent thrombin (Test Example 8); assay type: cell-based, human; set-up: key: The degree of agglutination was expressed by using marks +, ++, +++, etc.; The degree of agglutination was expressed by using marks +, ++, +++, etc.; The degree of agglutination was expressed by using marks +, ++, +++, etc; settings: specimen 2 mM, dissolved in 50% ethanol
Description: as §1, §2, §3, §4
c. thrombin (0.25 U/ml solution)
as §5, §6, §7

[5] = system: platelet agglutination caused by ristocetin; assay: Inhibitory effect against platelet agglutinating agent ristocetin (Test Example 8); assay type: cell-based, human; set-up: key: The degree of agglutination was expressed by using marks +, ++, +++, etc.; The degree of agglutination was expressed by using marks +, ++, +++, etc.; The degree of agglutination was expressed by using marks +, ++, +++, etc; settings: specimen 2 mM, dissolved in 50% ethanol
Description: as §1, §2, §3, §4
d. ristocetin (1.5 mg/ml solution)
as §5, §6, §7

[6] = system: Sarcoma-180; assay: Activity against a transplantable cancer, Sarcoma-180 (Test Example 7); assay type: in vivo, ICR-JCL mice; settings: 100 mg/kg ip once a day for 10 days; for inhibition in vivo at 100 mg/kg: Mus musculus, Sarcoma-180, ip, 240 h, read-out: I.R. (inhibition ratio, Sarcoma-180 tumor weight)
Description: Sarcoma-180 cells (1×10^6 cells) were inoculated subcutaneously into the back skin of each of ICR-JCL mice.
Chemotherapy was given intraperitoneally 24 hrs. after inoculation and performed once a day for 10 days. Each specimen to be administered was prepared by dissolving or suspending 30 mg of each compound according to this invention in 1 ml of a physiological saline or in 1 ml of a 0.2% solution of carboxymethylcellulose in a physiological saline, respectively.
All the solutions and the suspensions thus prepared were injected at a volume of 0.1 ml as a single dose (100 mg/Kg).
The inhibition ratio (%) was calculated according to the following equation: […]
wherein T represents the mean weight of the tumor Sarcoma-180 in a tested group of mice; and C represents the mean weight of the tumor in a control group of mice.

[7] = system: ddY mice; assay: Acute toxicity (LD50) by oral or intraperitoneal administration to ddY mice (Test Example 6); assay type: in vivo; settings: 7 days, 10080 min; for LD50 (ip): intraperitoneal
Description: as §8, §9

[8] = system: platelet agglutination caused by epinephrine; assay: Inhibitory effect against platelet agglutinating agent epinephrine (Test Example 8); assay type: cell-based, human; set-up: key: The degree of agglutination was expressed by using marks +, ++, +++, etc.; The degree of agglutination was expressed by using marks +, ++, +++, etc.; The degree of agglutination was expressed by using marks +, ++, +++, etc; settings: specimen 2 mM, dissolved in 50% ethanol
Description: as §1, §2, §3, §4
e. epinephrine (2 μg/ml solution)
as §5, §6, §7

[9] = ip, intraperitoneal, read-out: LD50 (ip)

SMILES	State of agglutination, 5 min. [1]	LD50 at 168 h [2, 9] [mg/kg]	LD50 at 168 h ([2]; po, read-out: LD50 (po)) [mg/kg]	State of agglutination, 5 min. [3]	State of agglutination, 5 min. [4]	State of agglutination, 5 min. [5]	inhibition in vivo at 100 mg/kg [6] [%]	LD50 (ip) [7] [mg/kg body weight]	LD50 (po) [7] [mg/kg body weight]	I.R. (inhibition ratio, Sarcoma-180 tumor weight) [6] [%]	State of agglutination, 5 min. [8]
CCCCCCCCCCCCCCCCCCCC[C@@H]1OC[C@@H](O)[C@H](O)[C@H]1O [C-n-Eicosyl-β-D-xylopyranoside]	+	430	2620	+	+	+	44.3				
CCCCCCCCCCCC[C@@H]1OC[C@@H](O)[C@H](O)[C@H]1O [C-n-Lauryl-β-D-xylopyranoside]		620	2800	+	+	+	83.4				
CCCCCCCCC[C@@H]1OC[C@@H](O)[C@H](O)[C@H]1O [C-n-Nonyl-β-D-xylopyranoside]	+	920	3000	+	+	+	73.1				
CCCCCCCCCCCCCCCCCC[C@@H]1OC[C@@H](O)[C@H](O)[C@H]1O [C-n-Stearyl-β-D-xylopyranoside]	+	480	2500	+	+	+	54.6				
O=C(O)c1ccc(C[C@@H]2OC[C@@H](O)[C@H](O)[C@H]2O)cc1 [C-para(sodiumoxycarbonyl)benzyl-β-D-xylopyranoside]								3000	9300	53.2	
O=C(O)c1ccc(S[C@@H]2OC[C@@H](O)[C@H](O)[C@H]2O)cc1 [Para(sodiumoxycarbonyl)phenyl 1-thio-β-D-xylopyranoside]								2600	7000	49.6	
O=C(O)c1ccc(O[C@@H]2OC[C@@H](O)[C@H](O)[C@H]2O)cc1 [Para(sodiumoxycarbonyl)phenyl-β-D-xylopyranoside]								2800	8200	39.7	
CCCCCCCCCCCCCCCCS[C@@H]1OC[C@@H](O)[C@H](O)[C@H]1O [n-Cetyl 1-thio-β-D-xylopyranoside]	+	425	2280	+	+	+	34.7				
CCCCCCCCCCS[C@@H]1OC[C@@H](O)[C@H](O)[C@H]1O [n-Decyl 1-thio-β-D-xylopyranoside]	+	450	2500	+	+	+	40				+
CCCCCCCCCCCCCCCCCCCCS[C@@H]1OC[C@@H](O)[C@H](O)[C@H]1O [n-Eicosyl 1-thio-β-D-xylopyranoside]	+	400	2300	+	+	+	32.2				
CCCCCCCCCCCCS[C@@H]1OC[C@@H](O)[C@H](O)[C@H]1O [n-Lauryl 1-thio-β-D-xylopyranoside]	+	407	2300	+	+	+	42.3				
